The numbers were not newly measured in patent US20230023005A1, “IMPROVING THE PERFORMANCE OF PIGMENT-BASED DYES BY USING A PRETREAMENT AGENT” (Henkel AG & Co. KGaA, priority 2019, published 2023), which cites them from elsewhere.

The conditions of data set [1]: 25° C.
For data set [2] the following is noted: 5% solution in water.

On to `O=S(=O)([O-])c1ccc(N=Nc2c(O)ccc3ccccc23)cc1.[Na+]` [Acid Orange 7, sodium salt of 4-[(2-hydroxy-1-naphthyl)azo]benzene sulphonate], for which the solubility in water result in data set [1] was “more than 7 g/L”.
`Nc1cc(S(=O)(=O)[O-])cc2cc(S(=O)(=O)[O-])c(N=Nc3ccccc3)c(O)c12.[Na+].[Na+]` [Acid Red 33, diantrium salt of 5-amino-4-hydroxy-3-(phenylazo)-naphthalene-2,7-disulphonate]: in data set [1], the solubility in water is 2.5 g/L.
As for `O=C([O-])c1c(Cl)c(Cl)c(Cl)c(Cl)c1-c1c2c(Br)cc(=O)c(Br)c-2oc2c(Br)c(O)cc(Br)c12.O=C([O-])c1c(Cl)c(Cl)c(Cl)c(Cl)c1-c1c2c(Br)cc(=O)c(Br)c-2oc2c(Br)c(O)cc(Br)c12.[Na+].[Na+]` [Acid Red 92, disodium salt of 3,4,5,6-tetrachloro-2-(1,4,5,8-tetrabromo-6-hydroxy-3-oxoxanthen-9-yl)benzoic acid], the solubility in water result in data set [1] is listed as “greater than 10 g/L”.
Turning to `O=C([O-])C1=NN(c2ccc(S(=O)(=O)[O-])cc2)C(=O)C1N=Nc1ccc(S(=O)(=O)[O-])cc1.[Na+].[Na+].[Na+]` (centres unmarked) [Acid Yellow 23, trisodium salt of 4,5-dihydro-5-oxo-1-(4-sulfophenyl)-4-((4-sulfophenyl)azo)-1H-pyrazole-3-carboxylic acid], the “solubility in water” value in data set [1] is given as “highly soluble in water”.
Consider `O=P([O-])(O)O.[K+]` [Potassium dihydrogen phosphate], for which, in data set [2], the “pH value of solution in water” value is on record as 4.4.
